Tests used:
ABUTH (Velvetleaf) = assay: Postemergence herbicidal evaluation; assay type: in vivo, Abutilon theophrasti; conditions: postemergence
Procedure, shortened: (§1)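 Each compound, dispersed in an acetone/water mix (50/50) carrying 0.5% TWEEN 20, is nozzle-sprayed at 40 psi on approximately two-week-old seedlings at about 0.0156–0.500 kg/ha. Plants are assessed 4–5 weeks afterward on a 0–9 scale relative to control; duplicate tests are averaged.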

AMBEL (Ragweed, Common) = assay: Postemergence herbicidal evaluation; assay type: in vivo, Ambrosia artemisifolia; conditions: postemergence
Procedure, shortened: as §1

[1] = test system: IPOHE (Morningglory, Ivyleaf); assay: Postemergence herbicidal evaluation; assay type: in vivo, Ipomoea hederacea; conditions: postemergence
Procedure, shortened: as §1

ECHCG (Barnyardgrass) [2] = assay: Postemergence herbicidal evaluation; assay type: in vivo, Echinochloa crus-galli; conditions: postemergence
Procedure, shortened: as §1

SETVI (Foxtail, Green) = assay: Postemergence herbicidal evaluation; assay type: in vivo, Setaria viridis; conditions: postemergence
Procedure, shortened: as §1

[3] = test system: GLXMAW (Soybean, Williams); assay: Postemergence herbicidal evaluation; assay type: in vivo, Glycine max, (L.) Merr. cv Williams; conditions: postemergence
Procedure, shortened: as §1

[4] = test system: TRZAWR (Wheat, Winter, cv Riband); assay: Postemergence herbicidal evaluation; assay type: in vivo, Triticum aestivum; conditions: postemergence
Procedure, shortened: as §1

CASOB (Sicklepod) = assay: Preemergence herbicidal evaluation; assay type: in vivo, Cassia obtusifolia; conditions: rated 4-5 weeks after treatment
Excerpt: (§2) Results of herbicide evaluation are expressed on a rating scale (0-9). The scale is based upon a visual observation of plant stand, vigor, malformation, size, chlorosis and overall plant appearance as compared with a control.
(§3) The preemergence herbicidal activity of the test compounds of the present invention is exemplified by the following tests in which the seeds of a variety of monocotyledonous and dicotyledonous plants are separately mixed with potting soil and planted on top of approximately one inch of soil in separate pint cups. After planting, the cups are sprayed with the selected aqueous acetone solution containing test compound in sufficient quantity to provide the equivalent of about 0.0156 to 0.500 kg per hectare of test compound per cup. The treated cups are then placed on greenhouse benches, watered and cared for in accordance with conventional greenhouse procedures. From four to five weeks after treatment, the tests are terminated and each cup is examined and rated according to the rating system provided in Example 37.
(§4) The compounds evaluated are reported by compound number given in Example 37.

[5] = test system: CHEAL (Lambsquarters, Common); assay: Preemergence herbicidal evaluation; assay type: in vivo, Chenopodium album; conditions: rated 4-5 weeks after treatment
Excerpt: as §2, §3, §4

GALAP (Galium) = assay: Preemergence herbicidal evaluation; assay type: in vivo, Galium aparine; conditions: rated 4-5 weeks after treatment
Procedure, shortened: (§5)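 Seeds were mixed with potting soil and planted on about one inch of soil, then sprayed with test compound in aqueous acetone at about 0.0156 to 0.500 kg per hectare. Plants grew under standard greenhouse care and were visually rated 0-9 against untreated controls 4-5 weeks post-treatment.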

[6] = test system: IPOHE (Morningglory, Ivyleaf); assay: Preemergence herbicidal evaluation; assay type: in vivo, Ipomoea hederacea; conditions: rated 4-5 weeks after treatment
Procedure, shortened: as §5

ECHCG (Barnyardgrass) [7] = assay: Preemergence herbicidal evaluation; assay type: in vivo, Echinochloa crus-galli; conditions: rated 4-5 weeks after treatment
Excerpt: as §2, §3, §4

ZEAMX (Corn, Field) = assay: Preemergence herbicidal evaluation; assay type: in vivo, Zea mays; conditions: rated 4-5 weeks after treatment
Excerpt: as §2, §3, §4

Cn1c(C(F)(F)F)cc(=O)n(-c2cc(N=C3SCC(=O)N3CC(=O)OCC3CCCCC3)c(Cl)cc2F)c1=O [Compound 123, Cyclohexylmethyl 2-{{2-chloro-5-[3,6-dihydro-3-methyl-2,6-dioxo-4-(trifluoromethyl)-1(2H)-pyrimidinyl]-4-fluorophenyl}imino}-4-oxo-3-thiazolidineacetate]
8.0: Herbicidal rating GLXMAW ([3]; rate 0.0625 kg/ha)
6.5: Herbicidal rating GLXMAW ([3]; rate 0.0156 kg/ha) | Herbicidal rating GLXMAW ([3]; rate 0.0313 kg/ha) | Herbicidal rating TRZAWR ([4]; rate 0.1250 kg/ha)
0.0: Preemergence herbicidal rating CASOB (CASOB (Sicklepod); rate 0.0156 kg/ha) | Preemergence herbicidal rating CASOB (CASOB (Sicklepod); rate 0.0313 kg/ha) | Preemergence herbicidal rating CASOB (CASOB (Sicklepod); rate 0.0625 kg/ha) | Preemergence herbicidal rating CASOB (CASOB (Sicklepod); rate 0.1250 kg/ha) | Preemergence herbicidal rating IPOHE ([6]; rate 0.0156 kg/ha) | Preemergence herbicidal rating IPOHE ([6]; rate 0.0313 kg/ha) | Preemergence herbicidal rating IPOHE ([6]; rate 0.0625 kg/ha) | Preemergence herbicidal rating ECHCG (ECHCG (Barnyardgrass) [7]; rate 0.0156 kg/ha) | Preemergence herbicidal rating ECHCG (ECHCG (Barnyardgrass) [7]; rate 0.0313 kg/ha) | Preemergence herbicidal rating ECHCG (ECHCG (Barnyardgrass) [7]; rate 0.0625 kg/ha) | Preemergence herbicidal rating ZEAMX (ZEAMX (Corn, Field); rate 0.0156 kg/ha)
9.0: Herbicidal rating ABUTH (ABUTH (Velvetleaf); rate 0.0156 kg/ha) | Herbicidal rating ABUTH (ABUTH (Velvetleaf); rate 0.0313 kg/ha) | Herbicidal rating ABUTH (ABUTH (Velvetleaf); rate 0.0625 kg/ha) | Herbicidal rating ABUTH (ABUTH (Velvetleaf); rate 0.1250 kg/ha) | Herbicidal rating AMBEL (AMBEL (Ragweed, Common); rate 0.0156 kg/ha) | Herbicidal rating AMBEL (AMBEL (Ragweed, Common); rate 0.0313 kg/ha) | Herbicidal rating AMBEL (AMBEL (Ragweed, Common); rate 0.0625 kg/ha) | Herbicidal rating AMBEL (AMBEL (Ragweed, Common); rate 0.1250 kg/ha) | Herbicidal rating IPOHE ([1]; rate 0.0156 kg/ha) | Herbicidal rating IPOHE ([1]; rate 0.0313 kg/ha) | Herbicidal rating IPOHE ([1]; rate 0.0625 kg/ha) | Herbicidal rating IPOHE ([1]; rate 0.1250 kg/ha) | Herbicidal rating ECHCG (ECHCG (Barnyardgrass) [2]; rate 0.1250 kg/ha) | Herbicidal rating SETVI (SETVI (Foxtail, Green); rate 0.0156 kg/ha) | Herbicidal rating SETVI (SETVI (Foxtail, Green); rate 0.0313 kg/ha) | Herbicidal rating SETVI (SETVI (Foxtail, Green); rate 0.0625 kg/ha) | Herbicidal rating SETVI (SETVI (Foxtail, Green); rate 0.1250 kg/ha) | Herbicidal rating GLXMAW ([3]; rate 0.1250 kg/ha) | Preemergence herbicidal rating CHEAL ([5]; rate 0.0156 kg/ha) | Preemergence herbicidal rating CHEAL ([5]; rate 0.0313 kg/ha) | Preemergence herbicidal rating CHEAL ([5]; rate 0.0625 kg/ha) | Preemergence herbicidal rating CHEAL ([5]; rate 0.1250 kg/ha) | Preemergence herbicidal rating CHEAL ([5]; rate 0.2500 kg/ha) | Preemergence herbicidal rating CHEAL ([5]; rate 0.5000 kg/ha) | Preemergence herbicidal rating GALAP (GALAP (Galium); rate 0.5000 kg/ha) | Preemergence herbicidal rating IPOHE ([6]; rate 0.2500 kg/ha) | Preemergence herbicidal rating IPOHE ([6]; rate 0.5000 kg/ha)
1.0: Preemergence herbicidal rating ECHCG (ECHCG (Barnyardgrass) [7]; rate 0.1250 kg/ha) | Preemergence herbicidal rating ZEAMX (ZEAMX (Corn, Field); rate 0.0313 kg/ha) | Preemergence herbicidal rating ZEAMX (ZEAMX (Corn, Field); rate 0.0625 kg/ha)
7.0: Herbicidal rating ECHCG (ECHCG (Barnyardgrass) [2]; rate 0.0625 kg/ha) | Preemergence herbicidal rating GALAP (GALAP (Galium); rate 0.1250 kg/ha) | Preemergence herbicidal rating IPOHE ([6]; rate 0.1250 kg/ha) | Preemergence herbicidal rating ECHCG (ECHCG (Barnyardgrass) [7]; rate 0.5000 kg/ha) | Preemergence herbicidal rating ZEAMX (ZEAMX (Corn, Field); rate 0.2500 kg/ha) | Preemergence herbicidal rating ZEAMX (ZEAMX (Corn, Field); rate 0.5000 kg/ha)
3.0: Preemergence herbicidal rating CASOB (CASOB (Sicklepod); rate 0.5000 kg/ha) | Preemergence herbicidal rating GALAP (GALAP (Galium); rate 0.0313 kg/ha) | Preemergence herbicidal rating GALAP (GALAP (Galium); rate 0.0625 kg/ha)
5.0: Herbicidal rating ECHCG (ECHCG (Barnyardgrass) [2]; rate 0.0156 kg/ha) | Herbicidal rating ECHCG (ECHCG (Barnyardgrass) [2]; rate 0.0313 kg/ha) | Preemergence herbicidal rating ZEAMX (ZEAMX (Corn, Field); rate 0.1250 kg/ha)
4.0: Herbicidal rating TRZAWR ([4]; rate 0.0156 kg/ha) | Preemergence herbicidal rating ECHCG (ECHCG (Barnyardgrass) [7]; rate 0.2500 kg/ha)
2.0: Preemergence herbicidal rating GALAP (GALAP (Galium); rate 0.0156 kg/ha)
6.0: Herbicidal rating TRZAWR ([4]; rate 0.0625 kg/ha) | Preemergence herbicidal rating GALAP (GALAP (Galium); rate 0.2500 kg/ha)
4.5: Herbicidal rating TRZAWR ([4]; rate 0.0313 kg/ha)

From patent US20020137929A1, “1 - (3-heterocyclylphenyl) isothiourea, -isourea, -guanidine and -amidine herbicidal agents” (Intellectual Property Department, BASF Aktiengesellschaft, priority 1998, published 2002)
